The text below walks through data of patent US20250346600A1, “TRICYCLIC DERIVATIVES AND RELATED USES” (MOMA Therapeutics, Inc., priority 2023, published 2025).

The target in experiment [1] is T1, Full length WRN protein (aa 2-1432) (Homo sapiens (Human), UniProt Q14191). Briefly: WRN ATPase ADP-Glo biochemical assay, Assay Format B (100 μM ATP). The conditions noted are these: 0.25 nM WRN, 100 nM C6.18 ssDNA, 60 min preincubation, read-out: ATPase ADPGlo AC50 (uM)- Assay Format B. (In general: ADP-Glo turns the ADP formed in a reaction into a luminescent signal.)

For another experiment, the system named is HCT116 cells. Briefly: HCT116 (MSI) 7 day viability, CellTiter Glo. The format is cell-based. The conditions noted are these: Homo sapiens, HCT-116, 168 h, 7 days, read-out: HCT116 (MSI) Viability 7 Day Abs AC50. A digest of the protocol:
(§1)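 For each line, compound dilution series (3-fold, 10 points) met a defined seeding density—HCT116 50, HT29 500 cells/well—followed by 7 days at 37 °C. Luminescent ATP signal, background-corrected with no-cell wells, gave four-parameter logistic IC50s.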
Background: ATP-based viability assays read luminescence as a measure of living cells.

A further experiment has as its system HT29 cells. The experiment in a line: HT29 (MSS) 7 day viability, CellTiter Glo. The conditions noted are these: Homo sapiens, HT-29, 168 h, 7 days, read-out: HT29 (MSS) Viability 7 Day CTGAbs AC50. It counts as cell-based. A digest of the protocol:
as §1

Experiment [2] deals with T1, Full length WRN protein (aa 2-1432). Briefly: WRN ATPase ADP-Glo biochemical assay, Assay Format A (10 μM ATP). As to conditions: 0.25 nM WRN, 100 nM C6.18 ssDNA, 30 min preincubation, read-out: ATPase ADPGlo AC50 (uM)- Assay Format A. The source says: Full length Werner helicase construct (Uniprot: Q14191) with an N-terminal FLAG-AVI-TEV tag was expressed using the Sf9 cell/baculovirus expression system. The harvested cell pellet was resuspended and lysed in a glass homogenizer. After insoluble material was removed by centrifugation, the helicase protein was first purified with FLAG affinity resin and then further purified through a size-exclusion chromatography column. Peak fractions containing the purified protein were concentrated, split into aliquots and frozen in liquid nitrogen to be thawed before use. Biochemical Assay Description (ATPase activity)-Assay Format A WRN activity was measured using an ATPase assay. Full length WRN protein (aa 2-1432) (production described separately) was used for the biochemical activity assays. The 39-mer ssDNA “C6.18” [NT] was purchased from IDT and used as a substrate. Quantification of ATP hydrolysis was evaluated using the ADP-Glo assay kit (Promega, Madison, WI). An enzyme titration time-course was performed to determine the optimal assay conditions. […] To evaluate the inhibitory effects of the compounds, 11-point 3-fold serial dilutions were prepared in DMSO. 50 nL of each concentration in duplicate was preincubated for 30 minutes in a 384-well microplate (Greiner #784075) with 5 μL of 0.5 nM WRN in assay buffer. The reaction was initiated by adding 5 μL of 200 nM C6.18 DNA with 20 μM ATP and was allowed to proceed for 30 minutes at room temperature. The reaction was stopped with 10 μL ADP-Glo reagent for 1 hour to remove unreacted ATP. Lastly, 20 μL ATP detection reagent was added and incubated for 1 hour to generate the luminescence signal. Control wells included “high controls” with no inhibition (DMSO, no compound) and “low controls” with maximum inhibition (no WRN). Luminescence was recorded on a PHERAstar (BMG Labtech, Ortenberg, Germany). Data was fit using the “Smart Fit” method within the Genedata Screener Software (Basel, Switzerland) to obtain IC50 values using four-parameter fits. Reported IC50s are the geometric means of at least two independent trials.

Structures are written as SMILES.

T1 sequence (Q14191 2-1432): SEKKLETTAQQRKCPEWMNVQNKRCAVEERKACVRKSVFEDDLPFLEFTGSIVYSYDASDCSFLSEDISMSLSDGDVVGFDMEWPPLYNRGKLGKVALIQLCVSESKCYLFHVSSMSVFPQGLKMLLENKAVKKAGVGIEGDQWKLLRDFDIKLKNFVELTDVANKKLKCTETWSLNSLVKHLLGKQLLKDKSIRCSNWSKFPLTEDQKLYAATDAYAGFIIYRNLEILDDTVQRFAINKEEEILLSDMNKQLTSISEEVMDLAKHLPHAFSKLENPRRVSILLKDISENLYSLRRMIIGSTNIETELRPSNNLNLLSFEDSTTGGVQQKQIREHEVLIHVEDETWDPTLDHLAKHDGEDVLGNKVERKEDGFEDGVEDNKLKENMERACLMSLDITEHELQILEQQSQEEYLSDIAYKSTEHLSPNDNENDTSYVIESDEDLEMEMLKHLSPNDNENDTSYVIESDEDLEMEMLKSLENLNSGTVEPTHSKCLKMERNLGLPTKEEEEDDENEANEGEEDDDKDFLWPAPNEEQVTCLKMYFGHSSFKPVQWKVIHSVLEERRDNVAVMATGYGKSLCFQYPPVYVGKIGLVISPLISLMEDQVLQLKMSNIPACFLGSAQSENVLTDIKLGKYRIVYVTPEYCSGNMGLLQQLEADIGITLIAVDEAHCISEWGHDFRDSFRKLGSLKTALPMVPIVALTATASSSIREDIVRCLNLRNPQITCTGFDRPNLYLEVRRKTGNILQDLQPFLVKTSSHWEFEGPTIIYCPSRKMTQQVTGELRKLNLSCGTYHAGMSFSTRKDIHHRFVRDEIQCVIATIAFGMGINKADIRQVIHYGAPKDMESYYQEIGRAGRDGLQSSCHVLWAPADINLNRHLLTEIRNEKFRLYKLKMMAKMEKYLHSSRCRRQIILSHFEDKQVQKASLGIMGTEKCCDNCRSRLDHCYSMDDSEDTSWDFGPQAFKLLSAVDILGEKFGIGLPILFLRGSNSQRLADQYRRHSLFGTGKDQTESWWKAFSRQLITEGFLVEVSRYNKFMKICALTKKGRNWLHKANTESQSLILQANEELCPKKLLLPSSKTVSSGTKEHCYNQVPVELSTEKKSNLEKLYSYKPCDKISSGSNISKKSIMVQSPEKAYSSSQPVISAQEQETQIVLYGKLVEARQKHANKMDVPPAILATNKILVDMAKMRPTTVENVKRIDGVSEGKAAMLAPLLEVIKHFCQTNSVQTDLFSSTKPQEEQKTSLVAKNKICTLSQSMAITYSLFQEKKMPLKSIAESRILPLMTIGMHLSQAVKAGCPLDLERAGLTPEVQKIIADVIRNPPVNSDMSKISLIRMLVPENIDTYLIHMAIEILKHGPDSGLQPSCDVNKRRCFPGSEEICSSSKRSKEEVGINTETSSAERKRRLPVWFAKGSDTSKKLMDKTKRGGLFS

For `C=CC(=O)N1CCc2nn(-c3ccc(C4CC4)cc3)c3c2C(C1)N(C(=O)c1cnc(C(F)(F)F)c(O)c1)CC3` (centres unmarked) [Compound 1, 1-(2-(4-cyclopropylphenyl)-5-(5-hydroxy-6-(trifluoromethyl)nicotinoyl)-2,3,4,5,5a,6,8,9-octahydro-7H-1,2,5,7-tetraazabenzo[cd]azulen-7-yl)prop-2-en-1-one], the AC50 (usually the concentration at which the activity in the assay is half-maximal) in experiment [1] is 0.015 to 0.055 µM; in the experiment with HCT116 cells, 100 to 250 nM; in the experiment on HT29 cells, above 3000 nM; in experiment [2], 0.0015 to 0.005 µM.
Turning to `C=CC(=O)N1CCc2nn(-c3ccc(CC(F)(F)F)cc3O)c3c2C(C1)N(C(=O)c1ccc(Br)c2[nH]cnc12)CC3` (centres unmarked) [Compound 2, 1-(5-(7-bromo-1H-benzo[d]imidazole-4-carbonyl)-2-(2-hydroxy-4-(2,2,2-trifluoroethyl)phenyl)-2,3,4,5,5a,6,8,9-octahydro-7H-1,2,5,7-tetraazabenzo[cd]azulen-7-yl)prop-2-en-1-one], the half-maximal activity concentration (AC50) was 0.005 to 0.015 µM in experiment [1], 1 to 100 nM in the experiment with HCT116 cells, above 3000 nM with HT29 cells and below 0.0015 µM in experiment [2].
For `C=CC(=O)N1CCc2nn(-c3ccc(C(F)(F)F)cc3O)c3c2C(C1)N(C(=O)c1ccc(Br)c2[nH]cnc12)CC3` (centres unmarked) [Compound 3, 1-(5-(7-bromo-1H-benzo[d]imidazole-4-carbonyl)-2-(2-hydroxy-4-(trifluoromethyl)phenyl)-2,3,4,5,5a,6,8,9-octahydro-7H-1,2,5,7-tetraazabenzo[cd]azulen-7-yl)prop-2-en-1-one] the same measures were 0.015 to 0.055 µM, 1 to 100 nM, above 3000 nM and 0.0015 to 0.005 µM.
For `C=CC(=O)N1CCc2nn(-c3ccc(C45CC(C4)C5)cc3)c3c2C(C1)N(C(=O)c1ccc(Br)c2[nH]cnc12)CC3` (centres unmarked) [Compound 4, 1-(2-(4-(bicyclo[1.1.1]pentan-1-yl)phenyl)-5-(7-bromo-1H-benzo[d]imidazole-4-carbonyl)-2,3,4,5,5a,6,8,9-octahydro-7H-1,2,5,7-tetraazabenzo[cd]azulen-7-yl)prop-2-en-1-one] the same measures were 0.015 to 0.055 µM, 1 to 100 nM, above 3000 nM and below 0.0015 µM.
For `C=CC(=O)N1CCc2nn(-c3ccc(C4CC4)cc3O)c3c2C(C1)N(C(=O)c1ccc(Br)c2[nH]cnc12)CC3` (centres unmarked) [Compound 5, 1-(5-(7-bromo-1H-benzo[d]imidazole-4-carbonyl)-2-(4-cyclopropyl-2-hydroxyphenyl)-2,3,4,5,5a,6,8,9-octahydro-7H-1,2,5,7-tetraazabenzo[cd]azulen-7-yl)prop-2-en-1-one] the same measures were 0.005 to 0.015 µM, 1 to 100 nM, above 3000 nM and below 0.0015 µM.
Consider `C=CC(=O)N1CCc2nn(-c3ccc(C4CCC4(F)F)cc3O)c3c2C(C1)N(C(=O)c1ccc(Br)c2[nH]cnc12)CC3` (centres unmarked) [Compound 6, 1-(5-(7-bromo-1H-benzo[d]imidazole-4-carbonyl)-2-(4-(2,2-difluorocyclobutyl)-2-hydroxyphenyl)-2,3,4,5,5a,6,8,9-octahydro-7H-1,2,5,7-tetraazabenzo[cd]azulen-7-yl)prop-2-en-1-one], for which the AC50 in experiment [1] was 0.015 to 0.055 µM; in the experiment with HCT116 cells, 1 to 100 nM; in the experiment with HT29 cells it was above 3000 nM; in experiment [2] it was 0.0015 to 0.005 µM.
For `C=CC(=O)N1CCc2nn(-c3ccc(C(C)C)cc3)c3c2C(C1)N(C(=O)c1ccc(Br)c2[nH]cnc12)CC3` (centres unmarked) [Compound 7, 1-(5-(7-bromo-1H-benzo[d]imidazole-4-carbonyl)-2-(4-isopropylphenyl)-2,3,4,5,5a,6,8,9-octahydro-7H-1,2,5,7-tetraazabenzo[cd]azulen-7-yl)prop-2-en-1-one] the same measures were 0.005 to 0.015 µM, 1 to 100 nM, above 3000 nM and below 0.0015 µM.
For `C=CC(=O)N1CCc2nn(-c3ccc(C(C)C)cc3)c3c2C(C1)N(C(=O)c1ccc(Br)c2[nH]c(N)nc12)CC3` (centres unmarked) [Compound 8, 1-(5-(2-amino-7-bromo-1H-benzo[d]imidazole-4-carbonyl)-2-(4-isopropylphenyl)-2,3,4,5,5a,6,8,9-octahydro-7H-1,2,5,7-tetraazabenzo[cd]azulen-7-yl)prop-2-en-1-one] the same measures were 0.005 to 0.015 µM, 1 to 100 nM, above 3000 nM and below 0.0015 µM.
For `C=CC(=O)N1CCc2nn(-c3ccc(C(C)C)cc3)c3c2C(C1)N(C(=O)c1ccc(Br)c2[nH]c(N4CCC4)nc12)CC3` (centres unmarked) [Compound 9, 1-(5-(2-(azetidin-1-yl)-7-bromo-1H-benzo[d]imidazole-4-carbonyl)-2-(4-isopropylphenyl)-2,3,4,5,5a,6,8,9-octahydro-7H-1,2,5,7-tetraazabenzo[cd]azulen-7-yl)prop-2-en-1-one] the same measures were 0.015 to 0.055 µM, 1 to 100 nM, above 3000 nM and 0.0015 to 0.005 µM.
As to `C=CC(=O)N1CCc2nn(-c3ccc(C(C)C)cc3)c3c2C(C1)N(C(=O)c1ncc(Br)c2[nH]cnc12)CC3` (centres unmarked) [Compound 10, 1-(5-(7-bromo-1H-imidazo[4,5-c]pyridine-4-carbonyl)-2-(4-isopropylphenyl)-2,3,4,5,5a,6,8,9-octahydro-7H-1,2,5,7-tetraazabenzo[cd]azulen-7-yl)prop-2-en-1-one], the AC50 was 0.015 to 0.055 µM in experiment [1], 1 to 100 nM in the experiment with HCT116 cells, above 3000 nM in the experiment with HT29 cells and below 0.0015 µM in experiment [2].
For the compound `C=CC(=O)N1CCc2nn(-c3ccc(C(C)C)cc3)c3c2C(C1)N(C(=O)c1cnc(C(F)(F)F)c(OC)c1)CC3` (centres unmarked) [Compound 12, 1-(2-(4-isopropylphenyl)-5-(5-methoxy-6-(trifluoromethyl)nicotinoyl)-2,3,4,5,5a,6,8,9-octahydro-7H-1,2,5,7-tetraazabenzo[cd]azulen-7-yl)prop-2-en-1-one], the concentration at half-maximal activity (AC50) in experiment [1] is 0.015 to 0.055 µM; with HCT116 cells, 1 to 100 nM; with HT29 cells it was above 3000 nM; in experiment [2], below 0.0015 µM.
For the compound `C=CC(=O)N1CCc2nn(-c3ccc(C(C)C)cc3)c3c2C(C1)N(C(=O)c1ccc(C(F)(F)F)nc1)CC3` (centres unmarked) [Compound 13, 1-(2-(4-isopropylphenyl)-5-(6-(trifluoromethyl)nicotinoyl)-2,3,4,5,5a,6,8,9-octahydro-7H-1,2,5,7-tetraazabenzo[cd]azulen-7-yl)prop-2-en-1-one], the AC50 was 0.015 to 0.055 µM in experiment [1], 100 to 250 nM in the experiment on HCT116 cells, above 3000 nM in the experiment on HT29 cells and 0.0015 to 0.005 µM in experiment [2].
For `C=CC(=O)N1CCc2nn(-c3ccc(C(C)C)cc3)c3c2C(C1)N(C(=O)c1cnc(C(F)(F)F)c(O)c1)CC3` (centres unmarked) [Compound 14, 1-(5-(5-hydroxy-6-(trifluoromethyl)nicotinoyl)-2-(4-isopropylphenyl)-2,3,4,5,5a,6,8,9-octahydro-7H-1,2,5,7-tetraazabenzo[cd]azulen-7-yl)prop-2-en-1-one] the same measures were 0.015 to 0.055 µM, 1 to 100 nM, above 3000 nM and 0.0015 to 0.005 µM.
For `CC(C)c1ccc(-n2nc3c4c2CCN(C(=O)c2ccc(Br)c5[nH]cnc25)C4CN(C(=O)/C=C/CN(C)C)CC3)cc1` (centres unmarked) [Compound 15, 1-(5-(7-bromo-1H-benzo[d]imidazole-4-carbonyl)-2-(4-isopropylphenyl)-2,3,4,5,5a,6,8,9-octahydro-7H-1,2,5,7-tetraazabenzo[cd]azulen-7-yl)-4-(dimethylamino)but-2-en-1-one] the same measures were above 0.055 µM, 250 to 500 nM, above 3000 nM and 0.015 to 0.055 µM.
`C=CC(=O)N1CCc2nn(-c3ccc(C(C)C)cc3)c3c2C(C1)N(C(=O)C1CC1)CC3` (centres unmarked) [Compound 170, 1-(5-(cyclopropanecarbonyl)-2-(4-isopropylphenyl)-2,3,4,5,5a,6,8,9-octahydro-7H-1,2,5,7-tetraazabenzo[cd]azulen-7-yl)prop-2-en-1-one]: the concentration at half-maximal activity (AC50) was above 1000 nM in the experiment with HCT116 cells, above 3000 nM in the experiment with HT29 cells and above 0.055 µM in experiment [2].
